According to ChEMBL document CHEMBL4680278 (J Med Chem, 2020):

How the values were obtained:
[1] = Maximum drug concentration in Swiss mouse brain at 120 mg/kg, po measured up to 24 hrs by HPLC analysis; assay type: ADME, organism-based; parameters: route oral, dose 120 mg/kg, time <=24
Cytochrome P450 1A1 = target: T1, Cytochrome P450 1A1 (Homo sapiens, UniProt P04798); experiment: Competitive inhibition of human recombinant CYP1A1 using 7-Ethoxyresorufin as substrate by Lineweaver-Burk plot analysis; assay type: ADME; settings: read-out: Ki(app)
T1 sequence (P04798 whole entry): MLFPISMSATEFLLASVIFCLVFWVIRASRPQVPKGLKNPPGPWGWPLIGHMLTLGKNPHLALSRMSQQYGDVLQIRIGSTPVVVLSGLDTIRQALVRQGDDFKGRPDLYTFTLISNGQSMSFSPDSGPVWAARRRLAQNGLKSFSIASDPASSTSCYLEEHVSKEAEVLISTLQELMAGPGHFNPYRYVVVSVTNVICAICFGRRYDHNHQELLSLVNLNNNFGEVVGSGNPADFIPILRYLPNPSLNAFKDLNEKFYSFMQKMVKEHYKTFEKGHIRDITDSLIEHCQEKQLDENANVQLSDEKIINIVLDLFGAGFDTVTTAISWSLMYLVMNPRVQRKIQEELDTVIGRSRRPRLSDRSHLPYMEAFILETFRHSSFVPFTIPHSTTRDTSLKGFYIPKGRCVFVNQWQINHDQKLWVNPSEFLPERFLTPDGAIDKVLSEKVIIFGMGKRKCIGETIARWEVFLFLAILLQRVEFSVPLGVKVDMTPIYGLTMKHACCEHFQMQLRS

[2] = Half-life in human at 20 mg, iv measured after 0.05 to 72 hrs by gas chromatograph mass spectrometry; assay type: ADME, organism-based; settings: in vivo, time 0.05-72 hrs
Homo sapiens = experiment: Anti-seizure activity in Lennox-Gastaut patient assessed as median percent reduction in seizure frequency at 20 mg/kg administered daily for 14 weeks (reference value: 17%); assay type: functional; parameters: scale not given: the % may be the effect or the level left
Cytochrome P450 2B6 = target: T2, Cytochrome P450 2B6 (Homo sapiens, UniProt P20813); experiment: Mixed type inhibition of human recombinant CYP2B6 expressed in baculovirus-infected insect cells using […] as substrate preincubated for 5 mins followed by NADPH-generating system addition by Lineweaver-Burk plot analysis; assay type: ADME
T2 sequence (P20813 whole entry): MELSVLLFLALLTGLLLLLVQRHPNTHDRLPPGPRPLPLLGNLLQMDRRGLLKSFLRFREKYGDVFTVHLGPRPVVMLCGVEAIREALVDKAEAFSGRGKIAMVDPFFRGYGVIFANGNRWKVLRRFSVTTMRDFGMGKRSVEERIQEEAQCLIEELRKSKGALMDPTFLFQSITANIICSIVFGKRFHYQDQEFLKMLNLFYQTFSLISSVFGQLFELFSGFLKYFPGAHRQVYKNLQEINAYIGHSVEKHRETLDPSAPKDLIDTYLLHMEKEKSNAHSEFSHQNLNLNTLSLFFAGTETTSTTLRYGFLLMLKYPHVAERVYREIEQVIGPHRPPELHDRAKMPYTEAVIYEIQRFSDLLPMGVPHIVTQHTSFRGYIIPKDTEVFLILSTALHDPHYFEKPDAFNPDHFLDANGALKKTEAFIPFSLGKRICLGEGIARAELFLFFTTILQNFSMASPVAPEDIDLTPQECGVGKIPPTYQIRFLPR

Histamine H3 receptor = Histamine H3 receptor (Homo sapiens, UniProt Q9Y5N1); experiment: Inhibition of histamine H3 receptor (unknown origin)
Sequence of Histamine H3 receptor (Q9Y5N1 whole entry): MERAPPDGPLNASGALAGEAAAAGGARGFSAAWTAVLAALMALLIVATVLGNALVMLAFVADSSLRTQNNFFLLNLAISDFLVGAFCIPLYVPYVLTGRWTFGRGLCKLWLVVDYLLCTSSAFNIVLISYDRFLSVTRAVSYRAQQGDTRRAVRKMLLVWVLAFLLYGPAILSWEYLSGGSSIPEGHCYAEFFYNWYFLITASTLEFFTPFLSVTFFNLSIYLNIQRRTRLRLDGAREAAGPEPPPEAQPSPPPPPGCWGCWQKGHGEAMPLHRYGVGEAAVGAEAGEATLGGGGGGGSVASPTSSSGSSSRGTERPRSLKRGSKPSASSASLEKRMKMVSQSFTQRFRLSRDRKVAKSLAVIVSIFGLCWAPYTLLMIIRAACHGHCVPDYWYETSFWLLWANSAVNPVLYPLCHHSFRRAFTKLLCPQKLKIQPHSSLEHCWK

[3] = Critical aggregation concentration of compound by dynamic light scattering; assay type: physicochemical
D(1A) dopamine receptor = D(1A) dopamine receptor (Homo sapiens, UniProt P21728); experiment: Inhibition of D1 dopamine receptor (unknown origin)
Sequence of D(1A) dopamine receptor (P21728 whole entry): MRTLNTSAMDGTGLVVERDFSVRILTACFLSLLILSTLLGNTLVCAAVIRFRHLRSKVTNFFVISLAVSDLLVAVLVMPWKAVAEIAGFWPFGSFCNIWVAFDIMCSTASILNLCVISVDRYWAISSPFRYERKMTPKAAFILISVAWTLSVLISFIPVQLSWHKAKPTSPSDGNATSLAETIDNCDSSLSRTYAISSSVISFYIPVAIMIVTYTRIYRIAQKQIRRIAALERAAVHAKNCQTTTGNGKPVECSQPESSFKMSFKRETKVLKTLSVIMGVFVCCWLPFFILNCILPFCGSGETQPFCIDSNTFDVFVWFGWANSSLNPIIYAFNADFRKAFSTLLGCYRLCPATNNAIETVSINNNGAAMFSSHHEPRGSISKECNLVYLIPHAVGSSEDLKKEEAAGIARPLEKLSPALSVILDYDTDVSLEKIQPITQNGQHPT

[4] = Volume of distribution in human at 20 mg, iv measured after 0.05 to 72 hrs by gas chromatograph mass spectrometry; assay type: ADME, organism-based; settings: in vivo, time 0.05-72 hrs
[5] = Elimination half-life in human at 10 mg using oromucosal-spray formulation measured upto 24 hrs by LC-MS/MS assay; assay type: ADME; settings: in vivo, read-out: beta t1/2 (converted)
Cytochrome P450 2C11 = target: T3, Cytochrome P450 2C11 (Rattus norvegicus, UniProt P08683); experiment: Competitive inhibition of CYP2C11 in rat liver microsomes; assay type: ADME
T3 sequence (P08683 whole entry): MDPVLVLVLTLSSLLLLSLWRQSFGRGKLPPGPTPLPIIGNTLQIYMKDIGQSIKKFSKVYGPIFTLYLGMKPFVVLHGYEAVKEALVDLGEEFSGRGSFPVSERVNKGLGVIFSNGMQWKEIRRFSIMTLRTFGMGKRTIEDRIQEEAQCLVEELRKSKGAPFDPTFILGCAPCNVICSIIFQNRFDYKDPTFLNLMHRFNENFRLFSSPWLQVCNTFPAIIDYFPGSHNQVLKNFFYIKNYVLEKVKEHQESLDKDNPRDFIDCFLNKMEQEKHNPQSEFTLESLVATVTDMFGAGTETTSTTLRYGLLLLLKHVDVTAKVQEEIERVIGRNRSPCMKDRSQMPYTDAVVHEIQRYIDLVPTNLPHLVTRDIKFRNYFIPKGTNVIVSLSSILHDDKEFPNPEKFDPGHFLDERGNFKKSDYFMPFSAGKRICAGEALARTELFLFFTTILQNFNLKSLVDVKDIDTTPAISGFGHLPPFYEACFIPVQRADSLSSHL

[6] = Elimination half-life in human at 10 mg, po using PTL401 formulation measured upto 24 hrs by LC-MS/MS assay; assay type: ADME, organism-based; settings: in vivo, read-out: beta t1/2 (converted)
[7] = target: T4, Steroid 17-alpha-hydroxylase/17,20 lyase (Rattus norvegicus, UniProt P11715); experiment: Mixed type inhibition of CYP17 in Sprague-Dawley rat testis microsomes assessed as reduction in 17alpha-Hydroxylase activity in presence of NADPH-generating system incubated for 2 mins by Lineweaver-Burk plot analysis; assay type: ADME
T4 sequence (P11715 whole entry): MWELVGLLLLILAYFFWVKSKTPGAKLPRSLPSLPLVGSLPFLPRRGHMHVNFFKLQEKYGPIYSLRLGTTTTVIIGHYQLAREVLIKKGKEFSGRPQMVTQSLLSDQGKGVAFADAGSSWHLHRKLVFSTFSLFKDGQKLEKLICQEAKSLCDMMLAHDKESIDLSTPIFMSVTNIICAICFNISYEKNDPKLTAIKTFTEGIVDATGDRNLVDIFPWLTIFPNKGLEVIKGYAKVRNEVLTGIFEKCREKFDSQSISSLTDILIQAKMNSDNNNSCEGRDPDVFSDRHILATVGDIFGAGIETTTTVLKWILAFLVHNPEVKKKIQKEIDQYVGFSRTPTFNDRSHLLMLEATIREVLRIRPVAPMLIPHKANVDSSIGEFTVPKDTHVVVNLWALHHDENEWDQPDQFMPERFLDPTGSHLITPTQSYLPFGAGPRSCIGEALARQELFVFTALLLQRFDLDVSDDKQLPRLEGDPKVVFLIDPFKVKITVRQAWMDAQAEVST

[8] = Cmax in mouse brain at 10 mg/kg, sc measured after 1 to 3 hrs by HPLC analysis; assay type: ADME, organism-based; parameters: route subcutaneous, time lower 1 hrs, dose 10 mg/kg, time upper 3 hrs
[9] = Half-life in human at 10 mg/kg, po BID administered for 6 weeks measured weekly for 15 weeks by GC/MS analysis; assay type: ADME, organism-based; settings: in vivo
[10] = Toxicity in pig assessed as mean arterial blood pressure drop at 50 mg/kg, iv administered for 15 mins by pulse oximetry relative to baseline; assay type: organism-based, Sus scrofa; settings: in vivo, 0.25 h

C=C(C)[C@@H]1CCC(C)=C[C@H]1c1c(O)cc(CCCCC)cc1O [CANNABIDIOL]
Cmax [1]: 4000 nM | Ki (Cytochrome P450 1A1): 160 nM | half-life [2]: 24 h | Activity (Homo sapiens): 42% | Ki (Cytochrome P450 2B6): 690 nM | Ki (Histamine H3 receptor): 3100 nM | CAC [3]: 12.5 µM | Ki (D(1A) dopamine receptor): 2700 nM | Vd [4]: 2520 L | half-life [5]: 2 h | Ki (Cytochrome P450 2C11): 20700 nM | half-life [6]: 2 h | Ki [7]: 124000 nM | Cmax [8]: 1000 nM | half-life [9]: 48 h | Activity [10]: < 70%
